Data published in US10149644B2, “Curcumin derivatives for amyloid-β plaque imaging” (The General Hospital Corporation, priority 2008, dated 2018).
“Also recorded” adds a separate entry of the source. Read-outs that look alike come from different tables or passages of the source.

Tests used:
BSA = target: T1, BSA (Bos taurus, UniProt P02769); assay: BSA interaction; assay type: binding; details: BSA 20 μg/mL, probe 5 μM
T1 construct: purchased Sigma
Description: CRANAD-2 was added to a BSA (20 μg/mL) solution to make the final concentration of 5 μM. The fluorescence spectrum of the above mixture was recorded (excited at 590 nm). For comparisons, CRANAD-2 (5 μM) in PBS, PBS alone, and Aβ40 aggregates ([…]) and CRANAD-2 (5 μM) were prepared.
(§1) Since serum albumin is the most abundant plasma protein, it was important to test whether the probe had any affinity toward this protein. To test this the inventors incubated CRANAD-2 probe with BSA. For controls, the inventors used PBS buffer alone, the probe incubated in PBS alone, and with Aβ40 aggregates. […] In addition, the inventors tested CRANAD-2 stability by incubating the probe (4×10^−6M) with human serum for 2 hours at 37° C.

Aβ plaques = assay: Histological staining of Tg2576 mice brain slices; details: co-staining with Thioflavin S
Description: Tg2576 mice brain tissue was cut into 25 micron slices. The slices were fixed with 4% formalin for 5 min and washed with PBS buffer twice. For Thioflavin S staining the slices were dipped into thioflavin S solution (1.0% in 50% ethanol) for 5 min., then differentiated in 70% ethanol for 5 min., rinsed with distilled water twice and mounted using Vecta shield mounting medium. Similar procedure was used to incubate sliced tissue with our probe. Histological slide was treated with, 0.01% CRANAD-2 in 10% acetone, 40% ethanol and 50% water for 15 min. For co-staining: the procedure was similar. The slices were first stained with thioflavin S, and washed with 70% ethanol for 5 min, then stained with the solution of CRANAD-2.

[1] = Fluorescence emission properties of the probes; assay type: physicochemical
Description: Reagents used for synthesis were purchased from Aldrich without further purification. Column chromatography was performed on silica gel (SiliCycle Inc., 60 Å, […]) slurry packed into glass columns. Thioflavin S was purchased from Aldrich. Synthetic amyloid-b protein (1-40) was purchased from rPeptide (Bogart, Ga., 30622) and aggregates for in vitro studies were generated followed the reported procedure. BSA was purchased from Sigma, and human serum was obtained from Invitrogen (type AB). ^1H and ^13C NMR spectra were recorded at 400 MHz and 100 MHz respectively, and are reported in ppm downfield from tetramethylsilane. Fluorescence studies were carried out with F-4500 Fluorescense Spectrophotometer. Fluorescence quantum yields were determined using aqueous solution of Cy5.5-maleimide as a standard (y=0.23). High resolution mass spectra were obtained at the Harvard University, Department of Chemistry Instrumentation Facility. Transgenic Tg2576 mice {45} and littermates were purchased from Taconic Farm, Balb/c mice for BBB penetrating test were obtained from Jackson Laboratory, and the experiment procedure was approved by Massachusetts General Hospital. In vivo imaging was recorded on Kodak Imaging Station 2000MM.
Furthermore, by comparing the fluorescence intensity in methanol, the quantum yield of CRANAD-2 was significant higher than that of curcumin (FIG. 2). […] Additionally, these modifications produced a large stokes shift and improved quantum yield of CRANAD-2. The synthesized compound produced the longest emission and the largest stokes shift among the existing probes for senile plaque detection {3}.

Aβ40 aggregates [2] = target: T2, Aβ40 aggregates (Homo sapiens, UniProt P05067); assay: Aβ aggregates detection in solution by fluorescence spectrum; assay type: binding; details: 250 nM compound, 250 nM Aβ40 aggregates, PBS, one minute
T2 construct: Synthetic amyloid-b protein (1-40) was purchased from rPeptide; purchased rPeptide (Bogart, Ga.)
Description: They then incubated 250 nM of the compounds with 250 nM of Aβ40 aggregates (calculation based on monomer) in PBS for one minute, and then measured the fluorescence spectra of the solutions.

[3] = BBB penetration and blood/brain clearance; assay type: in vivo, Balb/c mice; details: 10 mg/kg i.v.
Description: To test the BBB penetrating ability of the probe, Balb/c mice were used (n=3). […] Mice were perfused with saline solution and the brains were excised at 30 min., 1 h, 2 h, and 4 h after injection. Each brain sample was homogenized with 2.0 ml water and 3.0 ml ethyl acetate, and the homogenate was centrifuged for 5 min at 2,500 rpm. The fluorescence intensities of the ethyl acetate supernatant were recorded. The actual amounts (pmol) of the extracted probe were calculated according to the standard curve of CRANAD-2 in ethyl acetate.
Prior to perfusion, blood samples were taken at each time point to monitor the probe blood clearance. The blood samples were diluted with PBS buffer to 1.0 mL, followed by ethyl acetate (2.0 mL) extraction. The extractions were subjected to fluorescence intensity measurement, and the actual amounts of the probe for each mouse were calculated as the procedure for brain extraction described above.
In addition, to follow the probe clearance the inventors drew blood samples at each time point. […] LC-MS results also confirmed that the major component of the ethyl acetate extraction was CRANAD-2.

Aβ40 aggregates [4] = target: T2, Aβ40 aggregates; assay: Fluorescence response of probe to Aβ40 aggregates, Aβ40 monomer and PBS; assay type: binding
Description: We compared the fluorescence intensity of CRANAD-2 with PBS (pH 7.4), Aβ40 peptide, and Aβ40 aggregates generated from Cu^2+ induced aggregation.

Serum stability test = assay type: in vitro ADME, human; details: for recovery at 2 h, 4 μM: human, human serum, 37° C., ethyl acetate extraction
Description: CRANAD-2 (4.0 μM) was incubated at 37° C. for 2 h with 1.0 mL human serum, then ethyl acetate (4×5.0 mL) was added, stirred at room temperature for 10 min., and centrifuged to give clear organic supernatant. The ethyl acetate solution was subjected to fluorescence intensity measurement (F.I.(660 nm)=8713), and the concentration of CRANAD-2 was calculated (0.14 μM) using the equation (Y=474+61.7 X, where Y is F.I., and X is the concentration) generated from standard curve of CRANAD-2 in ethyl acetate. The recovery of CRANAD-2 was about 70%. After the fluorescence measurement, the ethyl acetate solution was concentrated to 40 μL, and 10 μL was injected for HPLC analysis. By HPLC, the recovery of CRANAD-2 was about 75%, which was close to the result from fluorescence measurement.
as §1

Aβ40 aggregates [5] = target: T2, Aβ40 aggregates; assay: In vitro Aβ aggregates binding constant measurement
Description: […] The Kd binding curve was generated by software Prism 3.0 with nonlinear one-site binding regression.
Binding constant (Kd) of CRANAD-2 towards Aβ aggregates was measured by fluorescence intensity (F.I.) with various concentrations of the prob.

T2 sequence (P05067 672-711 limits assumed): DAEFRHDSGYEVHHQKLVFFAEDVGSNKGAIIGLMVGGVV
T1 sequence (P02769 25-607): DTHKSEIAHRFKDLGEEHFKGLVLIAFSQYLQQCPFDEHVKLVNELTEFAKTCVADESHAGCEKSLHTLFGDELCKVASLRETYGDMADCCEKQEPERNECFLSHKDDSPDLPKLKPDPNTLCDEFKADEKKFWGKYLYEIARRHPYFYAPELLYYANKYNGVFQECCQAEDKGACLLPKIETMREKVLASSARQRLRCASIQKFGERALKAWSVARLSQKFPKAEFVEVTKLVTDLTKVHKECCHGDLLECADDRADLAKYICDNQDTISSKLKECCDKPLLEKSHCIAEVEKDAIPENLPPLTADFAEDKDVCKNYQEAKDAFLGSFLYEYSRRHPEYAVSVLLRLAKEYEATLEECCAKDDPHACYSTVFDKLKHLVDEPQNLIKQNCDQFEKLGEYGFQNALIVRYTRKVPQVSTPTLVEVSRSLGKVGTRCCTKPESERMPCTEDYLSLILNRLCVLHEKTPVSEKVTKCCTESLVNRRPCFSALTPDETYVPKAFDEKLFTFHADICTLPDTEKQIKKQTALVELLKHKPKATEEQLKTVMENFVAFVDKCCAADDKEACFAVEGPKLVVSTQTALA

Stoke shift in PBS ([1]; PBS only): 140 nm
Stoke shift in PBS with Aβ aggregates ([1]; PBS with Aβ aggregates): 70 nm
λmax(em) ([1]; probe alone, methanol (FIG. 2)): 760 nm
λmax(ex) ([1]; probe alone, methanol (FIG. 2)): 640 nm
Fluorescence intensity change with Aβ40 aggregates (Aβ40 aggregates [2]): intensity increases
Wavelength shift with Aβ40 aggregates (Aβ40 aggregates [2]): wavelength blue-shifts
Clearance from blood [3]: rapid clearance from blood
Clearance from the brain vs blood [3]: significantly slower
BBB penetrating ability ([3]; brain homogenate, fluorescence, HPLC, LC-MS): capability to cross BBB
Quantum yield in PBS buffer (Aβ40 aggregates [4]; PBS buffer): 0.6%
Quantum yield in PBS (Aβ40 aggregates [4]; PBS, given as fraction): 0.006
Quantum yield after binding to Aβ40 aggregates (Aβ40 aggregates [4]; bound to Aβ40 aggregates, given as fraction): 0.40
Quantum yield upon binding to aggregates (Aβ40 aggregates [4]; bound to aggregates): 40%
Fluorescence intensity increase in the presence of Aβ40 aggregates (Aβ40 aggregates [4]; vs PBS): 70 fold
Stability in serum in vitro (Serum stability test): considerable stability in serum
recovery at 2 h, 4 μM (Serum stability test; read-out: Recovery after serum incubation, by HPLC): ~75%
recovery at 2 h, 4 μM (Serum stability test; read-out: Recovery after serum incubation, by fluorescence): ~70%
Affinity to Aβ aggregates (Aβ40 aggregates [5]): high affinity to Aβ aggregates
Kd (Aβ40 aggregates [5]; Aβ40 aggregates in PBS, fluorescence intensity, nonlinear one-site regression, read-out: Binding constant (Kd) towards Aβ aggregates): 38.7 ± 2.77 nM
SMILES: CN(C)c1ccc(/C=C/C2=CC(/C=C/c3ccc(N(C)C)cc3)=[O+][B-](F)(F)O2)cc1 [CRANAD-2]
Binding to BSA / fluorescence change with BSA (BSA): did not observe any significant change in fluorescence; also recorded: did not show any significant binding; also recorded: does not show any significant binding
Staining of Aβ plaques in brain tissue (Aβ plaques): specificity towards Aβ plaques; also recorded: specific staining with Aβ plaques
Fluorescence intensity with Aβ40 peptide monomer vs PBS (Aβ40 aggregates [4]; Aβ40 monomer): did not observe any significant difference
